Here are results for eleven molecules from US20090137553A1, “Thiazepine Oxazolidinones as Antibacterial Agents” (Pharmacia and Upjohn Company LLC, priority 2004, published 2009).

≈ marks a conversion by molar mass, not a printed value.

What all share (type): cell-based
For one assay, the system named is S. aureus (UC-76). Description: In vitro antibacterial activity (MIC), S. aureus. Particulars: Staphylococcus aureus, UC76; strain UC-76; lowest concentration preventing macroscopically visible growth; read-out: Minimum Inhibitory concentrations S. aureus (UC-76). The text has this: (§1) The in vitro antibacterial activity of the compounds of the present invention may be assessed by following procedures recommended in (1) National Committee for Clinical Laboratory Standards (January 2003), Methods for dilution antimicrobial tests for bacteria that grow aerobically, Approved Standard (6th ed), M7-A6, NCCLS, Wayne, Pa.; (2) National Committee for Clinical Laboratory Standards (March 2001), Methods for antimicrobial susceptibility testing of anaerobic bacteria, Approved Standard (5th ed), M11-A4, NCCLS, Wayne, Pa.; (3) National Committee for Clinical Laboratory Standards (January 2003), MIC testing supplemental tables, M100-S13 (for use with M7-A6), NCCLS, Wayne, Pa.; and (4) Murray P R, Baron E J, Jorgensen J H, et al. Manual of Clinical Microbiology (8th ed) Washington, D.C.: American Society for Microbiology Press, 2003. The antibacterial activity can be presented in the form of MIC value. The MIC value is the lowest concentration of drug which prevented macroscopically visible growth under the conditions of the test.

The test system of a further assay is S. pyogenes (C203). Description: In vitro antibacterial activity (MIC), S. pyogenes. Particulars: Streptococcus pyogenes; strain C203; lowest concentration preventing macroscopically visible growth; read-out: Minimum Inhibitory concentrations S. pyogenes (C203).
Source text: as §1

The test system of the next assay is S. pneumoniae (SV-1). Kind of assay: In vitro antibacterial activity (MIC), S. pneumoniae. Particulars: Streptococcus pneumoniae; strain SV-1; lowest concentration preventing macroscopically visible growth; read-out: Minimum Inhibitory concentrations S. pneumoniae (SV-1).
Source text: as §1

In the case of `CNC(=O)[C@H]1CN(c2cc(F)c(N3CCC/S(=N\C(=O)C(F)(F)F)CC3)c(F)c2)C(=O)O1` (stereo in doubt) [Example 7, 3-{3,5-difluoro-4-[1-(2,2,2-trifluoro-acetylimino)-1λ^4-[1,4]thiazepan-4-yl]-phenyl}-2-oxo-oxazolidine-5-carboxylic acid methylamide], the MIC in the assay on S. aureus (UC-76), in the assay with S. pyogenes (C203) and in the assay on S. pneumoniae (SV-1) was 8 µg/mL (≈ 16.6 µM) throughout.
As for `NC(=O)[C@H]1CN(c2cc(F)c(N3CCCSCC3)c(F)c2)C(=O)O1` [Example 1, 3-[3,5-difluoro-4-(1,4-thiazepan-4-yl)-phenyl]-2-oxo-oxazolidine-5-carboxylic acid amide], the MIC in the assay with S. aureus (UC-76) was 2 µg/mL (≈ 5.6 µM); in the assay with S. pyogenes (C203), 2 µg/mL (≈ 5.6 µM); in the assay with S. pneumoniae (SV-1), 4 µg/mL (≈ 11.2 µM).
Regarding `CNC(=O)[C@H]1CN(c2cc(F)c(N3CCCSCC3)c(F)c2)C(=O)O1` [Example 2, 3-[3,5-difluoro-4-(1,4-thiazepan-4-yl)-phenyl]-2-oxo-oxazolidine-5-carboxylic acid methylamide], the MIC in the assay with S. aureus (UC-76) turned out to be 2 µg/mL (≈ 5.38 µM); in the assay on S. pyogenes (C203), 2 µg/mL (≈ 5.38 µM); in the assay on S. pneumoniae (SV-1) it was 4 µg/mL (≈ 10.8 µM).
Take `NC(=O)[C@H]1CN(c2cc(F)c(N3CCCS(=O)(=O)CC3)c(F)c2)C(=O)O1` [Example 3, 3-[4-(1,1-dioxo-1λ^6-[1,4]thiazepan-4-yl)-3,5-difluoro-phenyl]-2-oxo-oxazolidine-5-carboxylic acid amide]: the MIC came out at 2 µg/mL (≈ 5.14 µM) in the assay with S. aureus (UC-76), 2 µg/mL (≈ 5.14 µM) in the assay on S. pyogenes (C203) and 4 µg/mL (≈ 10.3 µM) in the assay on S. pneumoniae (SV-1).
For `CNC(=O)[C@H]1CN(c2cc(F)c(N3CCCS(=O)(=O)CC3)c(F)c2)C(=O)O1` [Example 4, 3-[4-(1,1-dioxo-1λ^6-[1,4]thiazepan-4-yl)-3,5-difluoro-phenyl]-2-oxo-oxazolidine-5-carboxylic acid methylamide], the figures for the MIC with S. aureus (UC-76), with S. pyogenes (C203) and in the assay on S. pneumoniae (SV-1) were 2 µg/mL (≈ 4.96 µM), 2 µg/mL (≈ 4.96 µM) and 4 µg/mL (≈ 9.92 µM), respectively.
Regarding `CONC(=O)[C@H]1CN(c2cc(F)c(N3CCCS(=O)(=O)CC3)c(F)c2)C(=O)O1` [Example 5, 3-[4-(1,1-dioxo-1λ^6-[1,4]thiazepan-4-yl)-3,5-difluoro-phenyl]-2-oxo-oxazolidine-5-carboxylic acid methoxy-amide], the results for the MIC with S. aureus (UC-76), in the assay with S. pyogenes (C203) and in the assay on S. pneumoniae (SV-1) were 4 µg/mL (≈ 9.54 µM), 4 µg/mL (≈ 9.54 µM) and 8 µg/mL (≈ 19.1 µM), respectively.
With `NC(=O)[C@H]1CN(c2cc(F)c(N3CCC/S(=N\C(=O)C(F)(F)F)CC3)c(F)c2)C(=O)O1` (stereo partly drawn) [Example 6, 3-{3,5-difluoro-4-[1-(2,2,2-trifluoro-acetylimino)-114-[1,4]thiazepan-4-yl]-phenyl}-2-oxo-oxazolidine-5-carboxylic acid amide], the MIC in the assay with S. aureus (UC-76), in the assay on S. pyogenes (C203) and with S. pneumoniae (SV-1) was 8 µg/mL (≈ 17.1 µM) throughout.
In the case of `CNC(=O)[C@H]1CN(c2ccc(N3CCCSCC3)c(F)c2)C(=O)O1` [Example 9, 5(R)-3-[3-Fluoro-4-(1,4-thiazepan-4-yl)-phenyl]-2-oxo-oxazolidine-5-carboxylic acid methylamide], the MIC in the assay with S. aureus (UC-76) came out at 8 µg/mL (≈ 22.6 µM); with S. pyogenes (C203) it was 4 µg/mL (≈ 11.3 µM); in the assay on S. pneumoniae (SV-1) it was 8 µg/mL (≈ 22.6 µM).
As to `CNC(=O)[C@H]1CN(c2ccc(N3CCC[S+]([O-])CC3)c(F)c2)C(=O)O1` (stereo partly drawn) [Example 11, 5(R)-3-[-fluoro-4-(1-oxo-1λ^4-[1,4]thiazepan-4yl)-phenyl]-2-oxo-oxazolidine-5-carboxylic acid methyl amide], the MIC came out at 2 µg/mL (≈ 5.41 µM) in the assay with S. aureus (UC-76), 1 µg/mL (≈ 2.71 µM) in the assay on S. pyogenes (C203) and 4 µg/mL (≈ 10.8 µM) in the assay with S. pneumoniae (SV-1).
Regarding `NC(=O)[C@H]1CN(c2ccc(N3CCC[S+]([O-])CC3)c(F)c2)C(=O)O1` (stereo partly drawn) [Example 12, 5(R)-3-[3-fluoro4-(1-oxo-1-[1,4]thiazepan-4-yl)-phenyl]-2-oxo-oxazolidine-5-carboxylic acid amide], the MIC with S. aureus (UC-76) amounted to 2 µg/mL (≈ 5.63 µM); with S. pyogenes (C203), 1 µg/mL (≈ 2.81 µM); in the assay on S. pneumoniae (SV-1), 4 µg/mL (≈ 11.3 µM).
Consider `CNC(=O)[C@H]1CN(c2ccc(N3CCCS(=O)(=O)CC3)c(F)c2)C(=O)O1` [Example 13, 5(R)-3-[4-(1,1-dioxo-1λ^6-[1,4]thiazepan-4-yl)-3-fluoro-phenyl]-2-oxo-oxazolidine-5-carboxylic acid methyl amide], for which the MIC is 12 µg/mL (≈ 31.1 µM) with S. aureus (UC-76), 1 µg/mL (≈ 2.59 µM) in the assay with S. pyogenes (C203) and 2 µg/mL (≈ 5.19 µM) with S. pneumoniae (SV-1).
